Earlier results as cited in patent US4803080A (BYK Gulden Lomberg Chemische Fabrik, priority 1984, dated 1989).

For `Cn1c(=O)c2[nH]cnc2n(C)c1=O` [Theophylline, 1,3-dimethylxanthine], the “Serum theophylline levels regarded as toxic range” value (Nolte and Neumann) is given as “more than 20 μg/ml”, the “Absorption from the gastrointestinal tract during the night” value (in vivo) is given as “slowed down during the night” and the “Therapeutic range, plasma levels” value (in vivo) is given as 8-20 mg/1.
